Data: US20260184667A1, “CGMP-COMPLIANT AUTOMATED [18F]FSPG PRODUCTION FOR CLINICAL EXAMINATION” (BOARD OF REGENTS, THE UNIVERSITY OF TEXAS SYSTEM, priority 2022, published 2026)

How the values were obtained:
[1] = Radiochemical purity on storage at room temperature (analytical reverse phase-HPLC); type: physicochemical; settings: stored at room temperature, for 5 hours after end of synthesis (FIG. 3)
Protocol: The radiochemical purity of the [^18F]FSPG composition was tested at the end of synthesis and up to 5 hours after being stored at room temperature. Analytical reverse phase-HPLC was performed on an Agilent 1260 HPLC system equipped with a 1200 Series Diode Array Detector and a Raytest GABI Star NaI (TL) scintillation detector. The following process parameters were used: • Column: Phenomenex Luna C-18 (2) 250 mm×4.6 mm (5 μm) • Mobile Phase A: 40 μM aqueous disodium phosphate • Mobile Phase B: Acetonitrile/Methanol/Water (45:45:10) (% w/v) • Flow rate: 1.5 ml/min • Gradient: • Initial: 100% Mobile Phase A, 0% Mobile Phase B • 2 min: 96% Mobile Phase A, 4% Mobile Phase B • 5 min: 88% Mobile Phase A, 12% Mobile Phase B • 15 min: 88% Mobile Phase A, 12% Mobile Phase B • 20 min: 40% Mobile Phase A, 60% Mobile Phase B • 22 min: 0% Mobile Phase A, 100% Mobile Phase B • 24 min: 0% Mobile Phase A, 100% Mobile Phase B • 25 min: 100% Mobile Phase A, 0% Mobile Phase B • 30 min: 100% Mobile Phase A, 0% Mobile Phase B • Total Run Time: 35 minutes • UV detector: 340 nm • [^18F]FSPG solution (80 μl) was mixed with o-phthaldialdehyde reagent solution (20 μl). The mixture sat for 1 min prior to the HPLC analysis.

[2] = biological target: T1, cystine/glutamate antiporter (Xc^−) (Homo sapiens, UniProt Q9UPY5); settings: PET; healthy volunteers and patients with non-small cell lung cancer, hepatocellular carcinoma, brain tumors; cited from earlier work
T1 construct: from tissue; host or cells: Human tissues and tumours in vivo (healthy volunteers; patients with NSCLC, hepatocellular carcinoma or brain tumours)
T1 sequence (Q9UPY5 1-501): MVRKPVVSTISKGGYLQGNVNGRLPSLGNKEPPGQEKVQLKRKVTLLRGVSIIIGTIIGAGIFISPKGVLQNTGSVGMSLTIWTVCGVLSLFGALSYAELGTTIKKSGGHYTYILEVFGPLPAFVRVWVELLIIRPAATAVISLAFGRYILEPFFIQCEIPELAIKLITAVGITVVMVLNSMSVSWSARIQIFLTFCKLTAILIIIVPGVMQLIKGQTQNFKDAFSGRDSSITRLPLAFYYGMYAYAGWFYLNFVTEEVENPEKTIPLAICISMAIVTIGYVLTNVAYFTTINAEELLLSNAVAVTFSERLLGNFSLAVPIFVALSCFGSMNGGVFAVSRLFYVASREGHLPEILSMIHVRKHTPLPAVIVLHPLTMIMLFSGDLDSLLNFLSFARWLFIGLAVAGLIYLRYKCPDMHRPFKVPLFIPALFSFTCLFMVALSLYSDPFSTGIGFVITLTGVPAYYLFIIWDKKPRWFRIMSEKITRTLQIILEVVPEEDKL
T1 sequence (P08195 1-529 partner): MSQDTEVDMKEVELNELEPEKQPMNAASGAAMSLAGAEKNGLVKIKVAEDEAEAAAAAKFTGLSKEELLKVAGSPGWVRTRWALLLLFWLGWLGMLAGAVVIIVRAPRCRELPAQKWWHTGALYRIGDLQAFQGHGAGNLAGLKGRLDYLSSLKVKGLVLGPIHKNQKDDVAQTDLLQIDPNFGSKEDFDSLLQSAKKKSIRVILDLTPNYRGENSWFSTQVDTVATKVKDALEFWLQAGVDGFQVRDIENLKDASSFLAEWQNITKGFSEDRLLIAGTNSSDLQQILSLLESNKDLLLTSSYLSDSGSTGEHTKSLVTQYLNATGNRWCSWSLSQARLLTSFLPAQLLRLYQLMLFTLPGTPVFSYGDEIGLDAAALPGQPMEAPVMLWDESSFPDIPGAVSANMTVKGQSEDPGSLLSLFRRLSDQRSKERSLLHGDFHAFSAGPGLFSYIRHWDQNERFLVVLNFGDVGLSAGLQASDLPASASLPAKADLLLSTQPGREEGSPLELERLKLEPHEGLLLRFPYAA

## N[C@@H](C[C@H](CCC[18F])C(=O)O)C(=O)O [[^18F]FSPG, (S)-4-(3-^18F-fluoropropyl)-L-glutamic acid]
[1]
  radiochemical purity maintained: > 95%
[2]
  background uptake: low background uptake in the brain, lung, and bowel
